Results as given in patent US8410094B2, “Amide compounds, their pharmaceutical compositions, their preparation method and their uses” (Shanghai Institute of Materia Medica, Chinese Academy of …, priority 2008, dated 2013).
Where two headings read alike, the source gives them in different places.

Experiments:
HIV-1 NL(AD8) virus = assay: H4DA5 cell model of virus replication (β-galactosidase reporter); type: cell-based; details: for IC50: read-out: IC50 (nM) H4DA5 cell model; for inhibitory activity EC50 level in H4DA5 cell model: stated in words
Procedure: 2. Results of Activity Assay at Cellular Level • 2.1 H4DA5 Cell Model (The Operation was Performed Under P3 Experimental Conditions) • (1) H4DA5 cells: Hela cells expressing human CD4, CCR5 receptor and reporting gene Ltr-lacZ; • (2) Appropriate amounts of H4DA5 cells were plated in 96-well plate and cultured overnight; • (3) The compound to be tested and HIV-1 NL(AD8) virus were added; • (4) Incubation for 3 days (in cell incubator at 37° C.); • (5) Virus replication was determined using β-galactosidase test kit.

CCR5 = molecular target: T1, CCR5 (Homo sapiens, UniProt P51681); assay: Inhibition of CCR5: [35S]GTPγS binding assays (filtration, SPA-WGA) and calcium influx assay, 10 nM RANTES, CHO-CCR5; type: biochemical; details: for IC50: inhibition of GTPγS binding induced by 10 nM RANTES, CHO-CCR5; for inhibition against CCR5 (class symbol in IC50 column): class by inhibition at 30 nM or 300 nM
T1 construct: expressed in transfected cells
Procedure: CCR5 belongs to G-Protein-Coupled Receptor (GPCR) family. The developing technology of GPCR-based drugs have been well-developed, among them, the experimental techniques such as ligand-receptor binding assay, GTPγS binding assay and Ca^2+ flux assay have been widely used in drug-screening related to chemokine receptors. The inhibitory activities of the compounds according to the present invention against CCR5 are measured by three methods, i.e., [^35S]GTPγS filter binding assay, SPA-WGA-based [^35S]GTPγS binding assay and calcium influx assay. At the same time, the antiviral activities in cell of the compounds according to the present invention are evaluated by using two kinds HIV-1 subtypes: H4DA5 cell model and PBMC system virus replication model.
A. [^35S]GTPγS Binding Assay
After binding with an agonist, CCR5 experiences a conformation change such that CCR5 interacts with G protein so as to active the G protein. G protein is a tripolymer composed of α-subunit and βγ-subunit. Since the ability of α-subunit binding to GTP depends on the interaction of CCR5 with the agonist, the ability of an agonist for activating CCR5 can be reflected by determining the amount of GTP binding to α-subunit. In a GTPγS binding assay, a ^35S-labeled GTP analogue GTPγS, which can bind with an activated α-subunit without being hydrolyzed, is used to replace GTP in order for eliminating the defect that the amount of GTP binding to G protein can not exactly reflect the activation of CCR5 due to the hydrolysis of GTO by GTPase and for convenience of detection. So, α-subunit binds with GDP when CCR5 is not activated, and after the activation of CCR5, α-subunit binds with GTPγS such that GTPγS irreversible binds to α-subunit. Therefore, the amount of [^35S]-GTPγS binding to α-subunit could reflect the level of CCR5 activated by an agonist. The ability of the agonist for activating CCR5 will decrease when an antagonist is added.
Such experiment has been referred to as GTPγS filtration assay in which [^35S]-GTPγS bound with the free G protein could be separated by membrane filtration.
Alternatively, SPA (Scintillation Proximity Assay) technique can be used to detect the [^35S]-GTPγS bound to G protein, which is called SPA-WGA-based [35S]GTPγS binding assay. The principle of SPA technique is as follows. Sub-atomic particles released during the decay of radioactive atoms, for example β-ray (electron), can excite microspheres at a sufficiently close distance to emit light so as to be detected by a Scintillation Counter. In an aqueous solution, most of the energy of these rays is absorbed by the solvent, and the traveling distance of these rays is limited.
The activation of G protein by CCR5 is determined by the following experiments.
CHO (Chinese hamster ovary cell) permanent cell line expressing CCR5 (CHO-CCR5) (a cell line constructed by Shanghai Targetdrug Ltd.) was lysed with a lysis buffer (5 mM Tris-HCl, pH 7.5, 5 mM EDTA and 5 mM EGTA) and then centrifugated at 15,000×g for 10 min to obtain cell membrane. After the cell membrane was resuspended in a reaction buffer (5 mM Tris-HCl, pH 7.5, 5 mM MgCl2, 1 mM EGTA, 100 mM NaCl), the protein concentration was determined using Bioford Protein Assay Kit manufactured by Bio-Rad Laboratories Inc. Subsequently, GTPγS binding assay was performed in the reaction buffer, wherein the reaction system was 100 μL containing 10 μg membrane protein, 40 μM GDP and 0.5 nM [^35S]-GTPγS (1200 Ci/mmol). After the compound to be tested (the compound was first dissolved in DMSO and then diluted in gradient with the reaction buffer according to the specific situation, wherein the final concentration of DMSO was 1% (v/v) in the whole reaction system) was added and shaken to mix homogeneously, the reaction tube was incubated at 30° C. for 1 hour. After the reaction finished, the tube was placed on ice, and the reaction mixture was diluted with PBS to quench the reaction and filtered under reduced pressure with a GF/C filter membrane. […]

HIV-1 Ba-L virus = assay: PBMC system of virus replication model (p24 antigen); type: cell-based; details: for IC50: read-out: IC50 (nM) PBMC system of virus replication model
Procedure: 2.2 PBMC System of Virus Replication Model (The Operation was Performed Under P3 Experimental Conditions) • (1) PBMC cells were separated from the blood from two people (using Ficoll gradient separation method); • (2) the PBMC cells were stimulated using PHA and incubated for 3 days in a cell incubator at 37° C. at a density of 2×10^6 cells/ml. • (3) PBMC cells were resuspended in a RF-10 medium (RF-10/IL2) containing 100 U/mL IL-2 (30 uL RF-10/IL2 medium containing 4 times of the final concentration of the compound to be tested and 40 uL RF-10/IL2 medium containing HIV-1 Ba-L virus (1400 pfu/well) were added in the plate (200,000 cells/50 uL/well). • (4) After incubated 24 hours, RF-10/IL2 medium containing 1 time of the final concentration of the compound to be test was added in each well. After infected for 4 days, 100 ul fresh RF-10/IL2 medium containing the compound to be tested at the final concentration to replace the original medium. After incubated for 2 days, the supernatant of each well was collected, and the content of p24 was determined. • (5) The content of P24 antigen in the supernatant of each well was measured by Vironostik p24 test kit to detect the virus replication.

[1] = Human immunodeficiency virus 1, 72 h

T1 sequence (P51681 whole entry): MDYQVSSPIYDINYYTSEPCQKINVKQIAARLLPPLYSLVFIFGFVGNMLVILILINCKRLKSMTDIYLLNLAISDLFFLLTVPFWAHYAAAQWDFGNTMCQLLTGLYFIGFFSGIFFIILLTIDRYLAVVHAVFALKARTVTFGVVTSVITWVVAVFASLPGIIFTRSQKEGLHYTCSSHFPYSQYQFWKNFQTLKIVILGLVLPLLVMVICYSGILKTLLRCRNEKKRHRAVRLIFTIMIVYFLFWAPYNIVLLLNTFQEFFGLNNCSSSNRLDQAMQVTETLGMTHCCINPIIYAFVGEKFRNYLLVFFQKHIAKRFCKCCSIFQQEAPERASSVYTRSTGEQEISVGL

Compound	IC50 (HIV-1 NL(AD8) virus; [1])	inhibitory activity EC50 level in H4DA5 cell model (HIV-1 NL(AD8) virus)	IC50 (CCR5)	inhibition against CCR5 (class symbol in IC50 column) (CCR5)	other results
CC(=O)N1CCC(C(=O)N(CCCN2[C@@H]3CC[C@H]2C[C@H](NC(=O)OCc2ccccc2)C3)c2ccc(C)c(Cl)c2)CC1 [Compound 8, 1-acetyl-N-(3-chloro-4-methylphenyl)-N-(3-(3-exo-benzyloxymethanamido-8-azabicyclo[3.2.1]oct-8-yl)propyl)-4-piperidinylcarboxamide]	220 nM	100 nM level	18.3 nM		
CC(=O)N1CCC(C(=O)N(CCCN2[C@@H]3CC[C@H]2C[C@H](NS(=O)(=O)c2ccc(C)cc2)C3)c2ccc(C)c(Cl)c2)CC1 [Compound 9b, 1-acetyl-N-(3-chloro-4-methylphenyl)-N-(3-(3-exo-p-tolylsulfonamido-8-azabicyclo[3.2.1]oct-8-yl)propyl)-4-piperidinylcarboxamide]	1 nM	nM level	6 nM		IC50 (HIV-1 Ba-L virus; Human immunodeficiency virus 1, BAL, PBMC): 0.42 nM; inhibitory activity EC50 level in PBMC system of virus replication model (HIV-1 Ba-L virus; stated in words): nM level
Cc1ccc(S(=O)(=O)NC2CC3CCC(C2)N3CCCN(C(=O)OCc2ccccc2)c2ccc(C)c(Cl)c2)cc1 (stereo not drawn) [Compound 15c, 3-chloro-4-methylphenyl(3-(3-exo-(4-toluenesulfonamido)-8-azabicyclo[3.2.1]oct-8-yl)propyl)carbamic acid benzyl ester]				++ (the compound at 300 nM has an inhibition against CCR5 of more thant 50% at 300 nM)	
Cc1ccc(S(=O)(=O)NC2CC3CCC(C2)N3CCCN(C(=O)Nc2ccccc2)c2ccc(C)c(Cl)c2)cc1 (stereo not shown) [Compound 15d]				++ (the compound at 300 nM has an inhibition against CCR5 of more thant 50% at 300 nM)	
Cc1ccc(S(=O)(=O)NC2CC3CCC(C2)N3CCCN(c2ccc(C)c(Cl)c2)S(=O)(=O)c2ccc(C)cc2)cc1 (stereo not drawn) [Compound 15e, N-(3-chloro-4-methylphenyl)-4-methyl-N-(3-(3-exo-(4-tolylsulfonamido)-8-azabicyclo[3.2.1]oct-8-yl)propyl)phenylsulfonamide]				++ (the compound at 300 nM has an inhibition against CCR5 of more thant 50% at 300 nM)	
Maraviroc [reference compound]					IC50 (HIV-1 Ba-L virus; PHA-stimulated PBMC, HIV-1 Ba-L, p24): 0.35 nM; IC50 (HIV-1 NL(AD8) virus; Hela cells expressing human CD4, CCR5 and Ltr-lacZ, HIV-1 NL(AD8), 3 days): 1.5 nM
